Data set [1] in a line: Tissue stability in mouse kidney homogenate. In kind it is in vitro ADME. Particulars: 2% mouse kidney homogenate mixed with equal volume of 200 µg/ml antibiotic, 37°C, HPLC; relative to MM13902 as standard (1.0).
Description: (§3) A preparation of 2% mouse kidney homogenate was mixed with equal volumes of a 200 µg/ml solution of the antibiotic to be tested. The stability of the antibiotic at 37°C was studied by removal of aliquots and subjecting them to high pressure liquid chromatographic analysis. The values are given in figures relative to that obtained for MM13902 which is taken as a standard (1.0). Values greater than 1.0 reflect the fold increase in stability relative to MM13902.
Data set [2] can be described thus: Tissue stability in human kidney homogenate (comparable test). It counts as in vitro ADME. Particulars: relative to MM13902 as standard (1.0).
Description: as §3
In data set [3] the test system is S. aureus Russell. Kind of data set: MIC (Broth). It counts as cell-based. Particulars: Staphylococcus aureus. The source says:
(§1) MIC DATA (Broth) For sodium (5RS,6RS)-3-[(Z)-2-carba- moylethenylthio)-4,4-dimethyl-6-[(1SR)-1-hydroxyethyl]-7-oxo-l-azabicyclo[3.2.0]hept-2-en-2-carboxylate (32)
(§2) MIC DATA (Broth) for sodium (5RS,6RS)-4,4-dimethyl-6- [(1SR)-1-hydroxyethyl]-3-(pyrimidin-2-ylsulphinyl)-7-oxo-1-azabicyclo[3.2.0]hept-2-ene-Z-carboxylate (27)

Data set [4] deals with B. subtilis A. Description: MIC (Broth). It counts as cell-based. Particulars: Bacillus subtilis.
Description: as §1, §2

Data set [5] relates to S. sonnei MB11 1967. Kind of data set: MIC (Broth). Particulars: Shigella sonnei, MB111967. It counts as cell-based.
Description: as §1, §2

Data set [6] deals with P. morganii 1580. Kind of data set: MIC (Broth). The settings on record: Morganella morganii. It counts as cell-based.
Description: as §1, §2

The test system of data set [7] is S. typhimurium CT10. Kind of data set: MIC (Broth). It counts as cell-based. The settings on record: Salmonella enterica.
Description: as §1, §2

Data set [8] concerns P. vulgaris W091. Description: MIC (Broth). It counts as cell-based. The settings on record: Proteus vulgaris.
Description: as §1, §2

The test system of data set [9] is K. aerogenes A. Kind of data set: MIC (Broth). It counts as cell-based. Particulars: Klebsiella aerogenes.
Description: as §1, §2

Data set [10] concerns S. aureus 1517. Kind of data set: MIC (Broth). It counts as cell-based. Particulars: Staphylococcus aureus.
Description: as §1, §2

For data set [11], the system named is P. rettgeri Wm16. Description: MIC (Broth). In kind it is cell-based. The settings on record: Providencia rettgeri.
Description: as §1, §2

The test system of data set [12] is P. mirabilis 977. Description: MIC (Broth). The settings on record: Proteus mirabilis. It counts as cell-based.
Description: as §1, §2

For data set [13], the system named is S. aureus Oxford. Description: MIC (Broth). Particulars: Staphylococcus aureus. In kind it is cell-based.
Description: as §1, §2

The test system of data set [14] is E. coli ESS. Kind of data set: MIC (Broth). It counts as cell-based. The settings on record: Escherichia coli.
Description: as §1, §2

Data set [15] has as its system C. freundii E8. Description: MIC (Broth). It counts as cell-based. Particulars: Citrobacter freundii.
Description: as §1, §2

Data set [16] concerns S. aureus MB9. Kind of data set: MIC (Broth). In kind it is cell-based. The settings on record: Staphylococcus aureus.
Description: as §1

The test system of data set [17] is K. aerogenes Ba95. Kind of data set: MIC (Broth). It counts as cell-based. The settings on record: Klebsiella aerogenes.
Description: as §1

In data set [18] the test system is E. coli E8. Description: MIC (Broth). It counts as cell-based. The settings on record: Escherichia coli.
Description: as §1

For data set [19], the system named is E. cloacae T753. Kind of data set: MIC (Broth). In kind it is cell-based. The settings on record: Enterobacter cloacae.
Description: as §1

In data set [20] the test system is E. cloacae N1. Kind of data set: MIC (Broth). In kind it is cell-based. The settings on record: Enterobacter cloacae.
Description: as §1

Data set [21] deals with E. coli JT39. Kind of data set: MIC (Broth). In kind it is cell-based. Particulars: Escherichia coli.
Description: as §1

Data set [22] has as its system E. coli 0111. Kind of data set: MIC (Broth). In kind it is cell-based. Particulars: Escherichia coli.
Description: as §1

Data set [23] relates to E. coli E96. Kind of data set: MIC (Broth). In kind it is cell-based. Particulars: Escherichia coli.
Description: as §1

In data set [24] the test system is S. pneumoniae CN 33. Description: MIC (Broth). It counts as cell-based. Particulars: Streptococcus pneumoniae, CN33.
Description: as §1

The subject of data set [25] is K. aerogenes T767. Description: MIC (Broth). In kind it is cell-based. Particulars: Klebsiella aerogenes.
Description: as §1

For data set [26], the system named is S. pyogenes CN10. Description: MIC (Broth). Particulars: Streptococcus pyogenes. In kind it is cell-based.
Description: as §1

Data set [27] has as its system E. cloacae N1 [T753]. Description: MIC (Broth). In kind it is cell-based. Particulars: Enterobacter cloacae.
Description: as §2

Data set [28] has as its system E. coli JT410 C4. Kind of data set: MIC (Broth). It counts as cell-based. The settings on record: Escherichia coli, JT410C4.
Description: as §2

In data set [29] the test system is E. coli JT39 [E96]. Description: MIC (Broth). In kind it is cell-based. Particulars: Escherichia coli.
Description: as §2

Data set [30] has as its system E. coli 0111 [E8]. Kind of data set: MIC (Broth). In kind it is cell-based. Particulars: Escherichia coli.
Description: as §2

In data set [31] the test system is K. aeogenes BA 9J R+. Kind of data set: MIC (Broth). In kind it is cell-based.
Description: as §2

The subject of data set [32] is Serratia marcescens US32. Description: MIC (Broth). It counts as cell-based.
Description: as §2

The test system of data set [33] is E. coli JT 2074. Description: MIC (Broth). It counts as cell-based. The settings on record: Escherichia coli, JT2074.
Description: as §2

Where two headings read alike, the source gives them in different places.

Usually MIC stands for the lowest concentration found to suppress growth.

Take `CC(=O)N/C=C/SC1=C(C(=O)O)N2C(=O)[C@@H]([C@H](C)OS(=O)(=O)O)[C@H]2C1` [MM13902, reference compound]: the “Relative Stability” value was 1.4 in data set [1] and 1.1 in [2].
As for `C[C@H](O)[C@@H]1C(=O)N2C(C(=O)[O-])=C(S/C=C\C(N)=O)C(C)(C)[C@@H]12.[Na+]` (racemic), the “Relative Stability” value was 10.8 in data set [1] and 6.9 in data set [2]. For the same molecule, the minimum inhibitory concentration (MIC) in data set [3] is 3.1 µg/mL; in data set [4], 1.6 µg/mL; in data set [5] it was 25 µg/mL; in [6] (1580), 25 µg/mL; in data set [7] (TYPHIMURIUM), 50 µg/mL; in [8] (W091) it was 25 µg/mL. Besides, the minimum inhibitory concentration (MIC) in data set [9] was determined as 6.2 µg/mL; in data set [10] (1517) it was 25 µg/mL; in data set [11] (WM16) it was 25 µg/mL; in [12] (977), 25 µg/mL; in [13], 6.2 µg/mL; in [14], 3.1 µg/mL. The MIC in [15] (E8) is 25 µg/mL; in data set [16] it was 25 µg/mL; in data set [17], 50 µg/mL; in data set [18] it was 50 µg/mL; in data set [19] it was 100 µg/mL; in [20] it was 25 µg/mL. Also, the MIC in data set [21] was 12.5 µg/mL; in [22] it was 50 µg/mL; in data set [23], 50 µg/mL; in data set [24] it was 50 µg/mL; in [25], 50 µg/mL; in data set [26], 6.2 µg/mL.
Consider `C[C@H](O)[C@@H]1C(=O)N2C(C(=O)[O-])=C([S+]([O-])c3ncccn3)C(C)(C)[C@@H]12.[Na+]` (mixture of isomers) [Example 22, Sodium (5RS,6RS)-4,4-dimethyl-6-((1SR)-1-hydroxyethyl]-3-(pyrimidin-2-ylsulphinyl)-7-oxo-1-azabicyclo(3.2.0]hept-2-en-2-carboxylate], for which the minimal inhibitory concentration (MIC) in data set [27] is 25 µg/mL; in [28], 25 µg/mL; in data set [29], 50 µg/mL; in data set [30], 25 µg/mL; in data set [31], 25 µg/mL; in data set [32] it was 100 µg/mL. Further, the MIC in [33] amounted to 25 µg/mL; in [3] (Broth, S. aureus Russell, read-out: MIC), 1.6 µg/mL; in data set [4] (Broth, B. subtilis A, read-out: MIC), 0.8 µg/mL; in [5] (Broth, S. sonnei MB11 1967, read-out: MIC), 50 µg/mL; in data set [6] (Broth, P. morganii 1580, read-out: MIC), 25 µg/mL; in [7] (Broth, S. typhimurium CT10, read-out: MIC) it was 12.5 µg/mL. The MIC in data set [8] (Broth, P. vulgaris W091, read-out: MIC) worked out at 6.2 µg/mL; in [9] (Broth, K. aerogenes A, read-out: MIC), 50 µg/mL; in data set [10] (Broth, S. aureus 1517, read-out: MIC), 25 µg/mL; in data set [11] (Broth, P. rettgeri Wm16, read-out: MIC), 25 µg/mL; in data set [12] (Broth, P. mirabilis 977, read-out: MIC), 25 µg/mL; in data set [13] (Broth, S. aureus Oxford, read-out: MIC) it was 0.8 µg/mL. For the same molecule, the minimum inhibitory concentration (MIC) was 1.6 µg/mL in [14] (Broth, E. coli ESS, read-out: MIC) and 25 µg/mL in data set [15] (Broth, C. freundii E8, read-out: MIC).

The values are drawn from patent EP0060077A1, “Beta-lactam antibiotics, their preparation and use” (BEECHAM GROUP PLC, priority 1981, dated 1982).
